Results published in patent publication US20230365566A1, “HETEROCYCLIC AMIDES AND THEIR USE FOR MODULATING SPLICING” (REMIX THERAPEUTICS INC., priority 2020, published 2023).

Tests used:
Assay type in all cases: cell-based
Target C CJ mRNA = test: Gene panel canonical junction qPCR assay, Target C; conditions: protocol of Example 42, read-out: Target C IC50 (decrease in CJ mRNA levels)
Experimental: (§1) Compounds described herein were used to modulate RNA transcript abundance in cells. The expression of a target mRNA was measured by detecting the formation of an exon-exon junction in the canonical transcript (CJ). A compound mediated exon-inclusion event was detected by observing an increase in formation of a new junction with an alternative exon (AJ). Real-time qPCR assays were used to detect these splicing switches and interrogate the potency of various compounds towards different target genes. A high-throughput real time quantitative PCR (RT-qPCR) assay was developed to measure these two isoforms of the mRNA (CJ and AJ) for an exemplary gene, HTT, together with a control housekeeping gene, GAPDH or GUSB or PPIA, used for normalization. Briefly, the A673 or K562 cell line was treated with various compounds described herein (e.g., compounds of Formula (I)). After treatment, the levels of the HTT mRNA targets were determined from each sample of cell lysate by cDNA synthesis followed by qPCR.
(§2) The A673 cell line was cultured in DMEM with 10% FBS. Cells were diluted with full growth media and plated in a 96-well plate (15,000 cells in 100 ul media per well). The plate was incubated at 37° C. with 5% CO2 for 24 hours to allow cells to adhere. An 11-point 3-fold serial dilution of the compounds was made in DMSO then diluted in media in an intermediate plate. Compounds were transferred from the intermediate plate to the cell plate with the top dose at a final concentration of 10 uM in the well. Final DMSO concentration was kept at or below 0.25%. The cell plate was returned to the incubator at 37° C. with 5% CO2 for an additional 24 hours.
(§3) The K562 cell line was cultured in IMDM with 10% FBS. For K562, cells were diluted with full growth media and plated in either a 96-well plate (50,000 cells in 50 uL media per well) or a 384-well plate (8,000-40,000 cells in 45 uL media per well). An 11-point 3-fold serial dilution of the compounds were made in DMSO then diluted in media in an intermediate plate. Compound was transferred from the intermediate plate to the cell plate with the top dose at a final concentration of 10 uM in the well. Final DMSO concentration was kept at or below 0.25%. Final volume was 100 uL for 96-well plate and 50 uL for 384-well plate. The cell plate was then placed in an incubator at 37° C. with 5% CO2 for 24 hours.
(§4) The data analysis was performed by first determining the ACt vs the housekeeper gene. This ACt was then normalized against the DMSO control (AACt) and converted to RQ (relative quantification) using the 2^(−ΔΔCt) equation. The RQ were then converted to a percentage response by arbitrarily setting an assay window of 3.5 ΔCt for HTT-CJ and an assay window of 9 ΔCt for HTT-AJ. […] The percentage response was then fitted to the 4 parametric logistic equation to evaluate the concentration dependence of compound treatment. The increase in AJ mRNA is reported as AC50 (compound concentration having 50% response in AJ increase) while the decrease in CJ mRNA levels is reported as IC50 (compound concentration having 50% response in CJ decrease).
(§5) Additional studies were carried out for a larger panel of genes using the protocol provided above. The junction between flanking upstream and downstream exons was used to design canonical junction qPCR assays. At least one of the forward primer, reverse primer or the CY5-labeled 5′ nuclease probe (with 3′ quencher such as ZEN/Iowa Black FQ) was designed to overlap with the exon junction to capture the CJ mRNA transcript. BLAST was used to confirm the specificity of the probeset and parameters such as melting temperature, GC content, amplicon size, and primer dimer formation are considered during their design. Data for the decrease in CJ mRNA levels for three exemplary genes (HTT, SMN2, and Target C) analyzed in this panel are reported as IC50 (compound concentration having 50% response in CJ decrease).

HTT CJ mRNA = test: Gene panel canonical junction qPCR assay, HTT; conditions: protocol of Example 42, read-out: HTT IC50 (decrease in CJ mRNA levels)
Experimental: as §1, §2, §3, §4, §5

SMN2 CJ mRNA = test: Gene panel canonical junction qPCR assay, SMN2; conditions: protocol of Example 42, read-out: SMN2 IC50 (decrease in CJ mRNA levels)
Experimental: as §1, §2, §3, §4, §5

[1] = tested on: HTT mRNA alternative junction (AJ); test: Splicing RT-qPCR assay, increase of HTT alternative junction (AJ) mRNA; conditions: A673 or K562 cells, 24 hours compound treatment, concentration having 50% response in AJ increase
Experimental: as §1, §2, §3
(§6) The cells were then gently washed with 50 uL-100 uL cold PBS before proceeding to addition of lysis buffer. 30 uL-50 uL of room temperature lysis buffer with DNAse I (and optionally RNAsin) was added to each well. Cells were shaken/mixed thoroughly at room temperature for 5-10 minutes for lysis to take place and then 3 uL-5 uL of room temperature stop solution was added and wells were shaken/mixed again. After 2-5 minutes, the cell lysate plate was transferred to ice for RT-qPCR reaction setup. The lysates could also be frozen at −80° C. for later use.
(§7) In some cases, a direct lysis buffer was used. An appropriate volume of 3× lysis buffer (10 mM Tris, 150 mM NaCl, 1.5%-2.5% Igepal and 0.1-1 U/uL RNAsin, pH 7.4) was directly added to either K562 or A673 cells in media and mixed by pipetting 3 times. The plates were then incubated at room temperature with shaking/rocking for 20-50 minutes to allow for lysis to take place. After this time, the cell lysate plate was transferred to ice to set up for the RT-qPCR reactions. The lysates could also be frozen at −80° C. for later use.
(§8) To set up 10 uL RT-qPCR reactions, cell lysates were transferred to 384-well qPCR plates containing the master mix according to the table below. The plates were sealed, gently vortexed, and spun down before the run. The volumes were adjusted accordingly in some instances where the reaction was carried in 20 uL. The table below summarizes the components of the RT-qPCR reactions:
(§9) The RT-qPCR reaction was performed using a QuantStudio (ThermoFisher) under the following fast cycling conditions. […]

[2] = tested on: HTT mRNA canonical junction (CJ); test: Splicing RT-qPCR assay, decrease of HTT canonical junction (CJ) mRNA; conditions: A673 or K562 cells, 24 hours compound treatment, concentration having 50% response in CJ decrease
Experimental: as §1, §2, §3, §6, §7, §8, §9

Row | Compound | IC50 (Target C CJ mRNA) [µM] | IC50 (HTT CJ mRNA) [µM] | IC50 (SMN2 CJ mRNA) [µM] | AC50 [1] [µM] | AC50 [2] [µM]
1 | Cc1cn2cc(NC(=O)c3ccc(C4CCNCC4)c4oc(C)nc34)cc(F)c2n1 [Compound 187, N-[8-fluoro-2-methylimidazo[1,2-a]pyridin-6-yl]-2-methyl-7-(piperidin-4-yl)-1,3-benzoxazole-4-carboxamide] | 0.1 to 1 | 0.1 to 1 | < 0.1 | 0.1 to 1 | 0.1 to 1
2 | Cc1cn2cc(NC(=O)c3ccc(C4CCNCC4)c4c3OCC4)cc(F)c2n1 [Compound 188, N-[8-fluoro-2-methylimidazo[1,2-a]pyridin-6-yl]-4-(piperidin-4-yl)-2,3-dihydro-1-benzofuran-7-carboxamide] | 1 to 10 | > 10 | 0.1 to 1 | > 10 | > 10
3 | Cc1cn2cc(NC(=O)c3ccc(N4CCN(C)CC4)c4cc(C)oc34)cc(F)c2n1 [Compound 189, N-[8-fluoro-2-methylimidazo [1,2-a]pyridin-6-yl]-2-methyl-4-(4-methylpiperazin-1-yl)-1-benzofuran-7-carboxamide] | 1 to 10 | 1 to 10 | < 0.1 | 1 to 10 | 1 to 10
4 | Cc1cn2cc(NC(=O)c3ccc(N4CCNC(C)C4)c4cc(C)oc34)cc(F)c2n1 (stereo not drawn) [Compound 190, N-{8-fluoro-2-methylimidazo[1,2-a]pyridin-6-yl}-2-methyl-4-(3-methylpiperazin-1-yl)-1-benzofuran-7-carboxamide] | 1 to 10 | 1 to 10 | 0.1 to 1 | 1 to 10 | 1 to 10
5 | Cc1cn2cc(NC(=O)c3ccc(N4CCN(C)C(C)C4)c4cc(C)oc34)cc(F)c2n1 (stereo not drawn) [Compound 191] | 1 to 10 | 0.1 to 1 | < 0.1 | 1 to 10 | 0.1 to 1
6 | Cc1cn2cc(NC(=O)c3ccc(N4CCNC(C)(C)C4)c4cc(C)oc34)cc(F)c2n1 [Compound 193] | > 10 | 1 to 10 | < 0.1 | 1 to 10 | 1 to 10
7 | Cc1cn2cc(NC(=O)c3ccc(N4CCNC5(CC5)C4)c4cc(C)oc34)cc(F)c2n1 [Compound 194] | > 10 | 1 to 10 | < 0.1 | 1 to 10 | 1 to 10
8 | CCNC1CCN(c2ccc(C(=O)Nc3cc(F)c4nc(C)cn4c3)c3oc(C)cc23)CC1 [Compound 196, 4-[4-(ethylamino)piperidin-1-yl]-N-[8-fluoro-2-methylimidazo[1,2-a]pyridin-6-yl]-2-methyl-1-benzofuran-7-carboxamide] | 1 to 10 | 1 to 10 | < 0.1 | 1 to 10 | 1 to 10
9 | Cc1cn2cc(NC(=O)c3ccc(N4CCC(NC(C)(C)C)CC4)c4cc(C)oc34)cc(F)c2n1 [Compound 197, 4-[4-(tert-butylamino)piperidin-1-yl]-N-[8-fluoro-2-methylimidazo[1,2-a]pyridin-6-yl]-2-methyl-1-benzofuran-7-carboxamide] | > 10 | > 10 | 0.1 to 1 | > 10 | > 10
10 | Cc1cn2cc(NC(=O)c3ccc(N4CCC(N(C)C)CC4)c4cc(C)oc34)cc(F)c2n1 [Compound 198, 4-[4-(dimethylamino)piperidin-1-yl]-N-[8-fluoro-2-methylimidazo[1,2-a]pyridin-6-yl]-2-methyl-1-benzofuran-7-carboxamide] | 1 to 10 | 0.1 to 1 | < 0.1 | 1 to 10 | 0.1 to 1
11 | Cc1cn2cc(NC(=O)c3ccc(N4CCN5CCCC5C4)c4cc(C)oc34)cc(F)c2n1 (stereo not drawn) [Compound 199, N-[8-fluoro-2-methylimidazo[1,2-a]pyridin-6-yl]-4-[hexahydro-1H-pyrrolo[1,2-a]pyrazin-2-yl]-2-methyl-1-benzofuran-7-carboxamide] | 1 to 10 | 0.1 to 1 | < 0.1 | 0.1 to 1 | 0.1 to 1
12 | Cc1cn2cc(NC(=O)c3ccc(N(C)C4CCN(C)CC4)c4cc(C)oc34)cc(F)c2n1 [Compound 200] | 1 to 10 | 1 to 10 | < 0.1 | 1 to 10 | 1 to 10
13 | Cc1cn2cc(NC(=O)c3ccc(N(C)C4CC(C)(C)NC(C)(C)C4)c4cc(C)oc34)cc(F)c2n1 [Compound 201] | > 10 | > 10 | 1 to 10 | > 10 | > 10
14 | Cc1cn2cc(NC(=O)c3ccc(N4CCC(N(C)C)C4)c4cc(C)oc34)cc(F)c2n1 (stereo not drawn) [Compound 202] | > 10 | > 10 | < 0.1 | 1 to 10 | > 10
15 | Cc1cn2cc(NC(=O)c3ccc(N4CCC(NC(C)(C)C)C4)c4cc(C)oc34)cc(F)c2n1 (stereo not drawn) [Compound 203, 4-[3-(tert-butylamino)pyrrolidin-1-yl]-N-[8-fluoro-2-methylimidazo[1,2-a]pyridin-6-yl]-2-methyl-1-benzofuran-7-carboxamide] | 1 to 10 | 1 to 10 | 0.1 to 1 | 1 to 10 | 1 to 10
